Source: EP1067939B1, “USE OF STEROIDAL ALKALOID DERIVATIVES AS INHIBITORS OF HEDGEHOG PROTEIN SIGNALING PATHWAYS” (The Johns Hopkins University, priority 1998, dated 1999)
Where “and” joins values, the source holds several entries; their conditions need not be identical. Identical values can stand only once. Like-named read-outs stand apart in the source and are kept apart here.

Columns and labels:
[1] = system: primary human lymphoblasts; experiment: Cholesterol Biosynthesis Assay (sterol profiles of cultured cells); assay type: cell-based; details: for Percent Sterols: Cholesterol / Percent Sterols: c. Cholesta-7,24-dien-3ß-ol / Percent Sterols: e. Cholesta-8(14)-en-3ß-ol / Percent Sterols: f. 7 Dehydrocholesterol / Percent Sterols: h. C27 Sterol 1 (mw 384) / Percent Sterols: j. C27 Oxysterol 1 (mw 400) / Percent Sterols: k. C27 Oxysterol 2 (mw 400) / Total Sterols (µg/mg protein) / Percent Sterols: i. C27 Sterol 2 (mw 382) / Percent Sterols: 2. C28 Sterols / Percent Sterols: 3. C29 Sterols / Percent Sterols: d. Zymosterol: five days
Shh = target: T1, Shh (Mus musculus, UniProt Q62226); experiment: Shh autoprocessing in stably transfected HK293 cells (immunoblot); assay type: cell-based
T1 construct: expressed in transfected cells; host or cells: HK293 cells, Ecdysone-Inducible Mammalian Expression System (Invitrogen)
T1 sequence (Q62226 25-437): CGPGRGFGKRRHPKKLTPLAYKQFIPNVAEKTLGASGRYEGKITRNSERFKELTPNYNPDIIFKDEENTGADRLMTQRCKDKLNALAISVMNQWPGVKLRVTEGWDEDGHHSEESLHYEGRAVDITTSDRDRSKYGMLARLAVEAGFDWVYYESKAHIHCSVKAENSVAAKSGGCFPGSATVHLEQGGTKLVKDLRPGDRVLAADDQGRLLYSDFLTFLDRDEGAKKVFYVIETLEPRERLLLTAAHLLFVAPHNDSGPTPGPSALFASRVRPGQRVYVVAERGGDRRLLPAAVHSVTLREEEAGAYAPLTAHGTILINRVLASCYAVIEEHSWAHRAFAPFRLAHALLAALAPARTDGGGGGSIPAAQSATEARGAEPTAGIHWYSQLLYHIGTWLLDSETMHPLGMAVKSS
From the text: To examine potential effects of these compounds on Shh processing we utilized HK293 cells cultured in lipid-depleted serum and carrying a stable integrated construct for expression of Shh under ecdysone-inducible control (47). Shh protein expression in these cells can be induced by addition of muristerone A, an ecdysone analog.
• 1. M. Hammerschmidt, A. Brook, A. P. McMahon, Trends Genet, 13, 14-21 (1997). • 2. C. Chiang, et al., Nature, 383,407-413 (1996). • 3. Y. Tanabe, T. M. Jessell, Science 274, 1115-1123 (1996). • 4. T. P. Yamaguchi, Curr. Opin. Genet. Dev. 7, 513-518 (1997). • 5. N. Shubin, C. Tabin, S. Carroll, Nature 388, 639-648 (1997). • 6. A. E. Oro, et al., Science 276, 817-821 (1997). • 7. M. M. Cohen, K. K. Sulik, J. Craniofac. Genet. Deve. Biol. 12, 196-244 (1992). • 8. E. Belloni, et al., Nature Genet. 14, 353-356 (1996). • 9. E. Roessler, et al., Nature Genet. 14, 357-360 (1996). • 10. J. A. Porter, et al., Nature 374, 363-366 (1995). • 11. J. A. Porter, K. E. Young, P. A. Beacy, Science 274, 255-259 (1996b). • 12. J. J. Lee, et al., Science 266, 1528-1537 (1994). • 13. J. A. Porter, et al., Cell 86, 21-34 (1996a). • 14. C. Roux, Arch. Franc. Pediatr. 21, 451-464 (1964). • 15. C. Roux, C. R. Soc. Biol. 160, 1353-1357 (1966). • 16. D. B. Dehart, L. Lanoue, G. S. Tinit, K. K. Sulik, Am J. Med. Genet. 68, 328-337 (1997). • 17. M. Kraml, J. F. Bagli, D. Dvornik, Biochem. and Biophysical Res. Com. 15, 455-457 (1964). • 18. J. Avigan, D. Steinberg, H. E. Vroman, M. J. Thompson, E. Mosettig, J. Biol. Chem 235, 3123-3126 (1960). • 19. R. B. Clayton, A. N. Nelson, I. D. Frantz Jr., J. Lipid Res. 4, 166-178 (1963). • 20. J. Aufenanger, J. Pill, K. Stegmeier, F. H. Schmidt, Horm. Metabol. Res. 17, 612-613 (1986). • 21. […] G. Popjak, A. Meenean, E. J. Parish, W. D. Nes, J. Biol. Chem 264,6230-6238 (1989). • 23. H. Yoshikawa, Brain Deve. 13, 115-120 (1991). • 24. R. I. Kelley, et al., Am. J. Of Med. Gen. 66, 478-484 (1996). • 25. G. S. Tint, et al., New England Journal of Medicine 330, 107-113 (1994). • 26. T.E. Willnow, et al., Proc. Natl. Acad. Sci USA 93, 8460-8464 (1996). • 27. S. Stefansson, D. A. Chappell, K. M. Argraves, D. K. Strickland, W. S. Argraves, J. Biol. Chem. 270, 19417-19421 (1995). • 28. W. Binns, L. F. James, J. L. Shupe, G. Everett, Am. J. Vet. Res. 24, 1164-1174 (1963). • 29. R. F. Keeler, W. Binns, Teratology 1, 5-10 (1968). • 30. P. A. Beachy, et al., CSH Symp. Quant. Biol. 62, in press (1997). • 31. E. D. Carstea, et al., Science 277, 228-231 (1997). • 32. S. K. Loftus, et al., Science 277, 232-235 […]. • 33. L. V. Goodrich, L. Milenkovic, K. M. Higgins, M. P. Scott, Science 277, 1109-1113 (1997). • 34. H. Kumagai, K. T. Chun, R. D. Simoni, J. Biol. Chem. 270, 19107-19113 (1995). • 35. G. Gil, J. R. Faust, D. J. Chin, J. L. Goldstien, M. S. Brown, Cell 41, 249-258 (1985). • 36. X. Hua, A. Nohturfft, J. L. Goldstein, M. S. Brown, Cell 87, 415-426 (1996). • 37. M. S. Brown, J. L. Goldstein, Cell 89, 331-340 (1997). • 38. M. M. Bryden, C. Perry, R. F. Keeler, Teratology 8, 18-28 (1973). • 39. M. L. Omnell, F. R. P. Sim, R. F. Keeler, L. C. Harne, K. W. Brown, Teratology 42, 105-119 (1990). • 40. Fertile chick eggs (white leghorn) were placed in a humidified incubator at 37.5° C in a rotating tray for 14 hours. […] The window was taped and the eggs incubated for an additional 4 days. The embryos were dissected in phosphate buffered saline (PBS, pH 7.2).

Shh-N = experiment: Intermediate neural plate explant response to exogenous Shh-N protein; assay type: cell-based, chick
BMP7 = experiment: Neural plate explant response to BMP7 (migratory HNK-1 positive cells); assay type: cell-based, chick; details: 100 ng/ml BMP7, ventral neural plate explants

SMILES	Percent Sterols: b. 7 Dehydrodesmosterol [1]	Percent Sterols: Cholesterol ([1]; 1.25 µM) [%]	Percent Sterols: c. Cholesta-7,24-dien-3ß-ol ([1]; 1.25 µM) [%]	Percent Sterols: e. Cholesta-8(14)-en-3ß-ol ([1]; 1.25 µM) [%]	Percent Sterols: f. 7 Dehydrocholesterol ([1]; 1.25 µM) [%]	Total Sterols (µg/mg protein) ([1]; 1.25 µM)	Percent Sterols: Cholesterol ([1]; 2.5 µM) [%]	Percent Sterols: c. Cholesta-7,24-dien-3ß-ol ([1]; 2.5 µM) [%]	Percent Sterols: e. Cholesta-8(14)-en-3ß-ol ([1]; 2.5 µM) [%]	Percent Sterols: f. 7 Dehydrocholesterol ([1]; 2.5 µM) [%]	Total Sterols (µg/mg protein) ([1]; 2.5 µM)	Percent Sterols: 2. C28 Sterols ([1]; 5.0 µM) [%]	Percent Sterols: 3. C29 Sterols ([1]; 5.0 µM) [%]	Percent Sterols: Cholesterol ([1]; 5.0 µM) [%]	Percent Sterols: c. Cholesta-7,24-dien-3ß-ol ([1]; 5.0 µM) [%]	Percent Sterols: e. Cholesta-8(14)-en-3ß-ol ([1]; 5.0 µM) [%]	Percent Sterols: f. 7 Dehydrocholesterol ([1]; 5.0 µM) [%]	Total Sterols (µg/mg protein) ([1]; 5.0 µM)	other results
C[C@H]1CC[C@]2(NC1)O[C@H]1C[C@H]3[C@@H]4CC[C@H]5C[C@@H](O)CC[C@]5(C)[C@H]4CC[C@]3(C)[C@H]1[C@@H]2C [Tomatidine, tomatidine]	0.8% and 0.5%	54	0.9	6.7	19	7.8	42	0.9	8.9	14	7.8	1.6	3.1	32	0.7	8.7	9.8	5.6	Percent Sterols: g. Lathosterol [1]: 4.9% and 4.7% and 3.6%; Percent Sterols: h. C27 Sterol 1 (mw 384) ([1]; 1.25 µM): 7.0%; Percent Sterols: j. C27 Oxysterol 1 (mw 400) ([1]; 1.25 µM): 1.0%; Percent Sterols: k. C27 Oxysterol 2 (mw 400) ([1]; 1.25 µM): 2.0%; Percent Sterols: h. C27 Sterol 1 (mw 384) ([1]; 2.5 µM): 13%; Percent Sterols: i. C27 Sterol 2 (mw 382) ([1]; 2.5 µM): 4.1%; Percent Sterols: j. C27 Oxysterol 1 (mw 400) ([1]; 2.5 µM): 2.4%; Percent Sterols: k. C27 Oxysterol 2 (mw 400) ([1]; 2.5 µM): 5.0%; Percent Sterols: h. C27 Sterol 1 (mw 384) ([1]; 5.0 µM): 20%; Percent Sterols: i. C27 Sterol 2 (mw 382) ([1]; 5.0 µM): 4.7%; Percent Sterols: j. C27 Oxysterol 1 (mw 400) ([1]; 5.0 µM): 4.5%; Percent Sterols: k. C27 Oxysterol 2 (mw 400) ([1]; 5.0 µM): 11%; Shh-Np production and accumulation of unprocessed precursor (Shh; added during the 24-hour induction period, doses up to 5-fold higher than those required to completely inhibit Shh signaling): did not diminish Shh-Np production nor induce accumulation of unprocessed precursor; slower migrating Shh species, signal sequence cleavage (Shh; species ∼ 1.9 kD larger, lanes 10, 11): minor inhibition of signal sequence cleavage; concentrations producing partial inhibition relative to those required for complete inhibition by jervine and cyclopamine (Shh-N): 100200 fold; concentration that inhibits the repression of Pax7 expression by 2 nM Shh-N (Shh-N; 2 nM Shh-N, 20 hours): > 50 µM; effect on HNF3β and Isl-1 induction (Shh-N; 50 µM, 25 nM Shh-N): markedly reduces HNF3β induction and enhances Isl1-1 induction; effect on HNF3β and Isl-1 expression (Shh-N; Tomatidine at 25 nM (so in the source), 25 nM Shh-N): slight inhibitory effect; Induction of migratory HNK-1 positive cells by BMP7 (BMP7; 50 µM): not inhibited
CC1=C2C[C@H]3[C@@H](CC=C4C[C@@H](O)CC[C@@]43C)[C@@H]2CC[C@]12O[C@@H]1C[C@H](C)CN[C@H]1[C@H]2C [Cyclopamine, cyclopamine]	0.8%	87	0.6	0.9	2.4	8.4	76	0.9	2.5	4.2	8.5	1.8	3.1	68	1.6	2.7	6.3	8.3	Percent Sterols: 2. C28 Sterols ([1]; 1.25 µM): 1.2%; Percent Sterols: 3. C29 Sterols ([1]; 1.25 µM): 0.7%; Percent Sterols: d. Zymosterol ([1]; 1.25 µM): 2.3%; Percent Sterols: 2. C28 Sterols ([1]; 2.5 µM): 1.3%; Percent Sterols: 3. C29 Sterols ([1]; 2.5 µM): 1.2%; Percent Sterols: d. Zymosterol ([1]; 2.5 µM): 4.5%; Percent Sterols: d. Zymosterol ([1]; 5.0 µM): 4.7%; Shh-Np production and accumulation of unprocessed precursor (Shh): did not diminish Shh-Np production nor induce accumulation of unprocessed precursor; concentration that inhibits the repression of Pax7 expression by 2 nM Shh-N (Shh-N): 0.0625 µM; doses at which HNF3β and Isl-1 induction are completely blocked (Shh-N): 0.25 µM; intermediate levels at which induction of HNF3β is blocked while induction of Isl-1 is maintained or expanded (Shh-N): 0.125 µM; Induction of migratory HNK-1 positive cells by BMP7 (BMP7; 10 µM): not inhibited
